Data as given in patent US20260070899A1, “N-(2-(4-CYANOTHIAZOLIDIN-3-YL)-2-OXOETHYL)-QUINOLINE-4-CARBOXAMIDES” (AstraZeneca AB, priority 2022, published 2026).

Columns and labels:
Assay in all cases: biochemical
hFAP = target: T1, hFAP (Homo sapiens, UniProt Q12884);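 also: substrate fluorescence read at room temperature in darkness, IC50 obtained by one-site dose-response fitting of percent inhibition against log concentration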
T1 sequence (Q12884 38-760): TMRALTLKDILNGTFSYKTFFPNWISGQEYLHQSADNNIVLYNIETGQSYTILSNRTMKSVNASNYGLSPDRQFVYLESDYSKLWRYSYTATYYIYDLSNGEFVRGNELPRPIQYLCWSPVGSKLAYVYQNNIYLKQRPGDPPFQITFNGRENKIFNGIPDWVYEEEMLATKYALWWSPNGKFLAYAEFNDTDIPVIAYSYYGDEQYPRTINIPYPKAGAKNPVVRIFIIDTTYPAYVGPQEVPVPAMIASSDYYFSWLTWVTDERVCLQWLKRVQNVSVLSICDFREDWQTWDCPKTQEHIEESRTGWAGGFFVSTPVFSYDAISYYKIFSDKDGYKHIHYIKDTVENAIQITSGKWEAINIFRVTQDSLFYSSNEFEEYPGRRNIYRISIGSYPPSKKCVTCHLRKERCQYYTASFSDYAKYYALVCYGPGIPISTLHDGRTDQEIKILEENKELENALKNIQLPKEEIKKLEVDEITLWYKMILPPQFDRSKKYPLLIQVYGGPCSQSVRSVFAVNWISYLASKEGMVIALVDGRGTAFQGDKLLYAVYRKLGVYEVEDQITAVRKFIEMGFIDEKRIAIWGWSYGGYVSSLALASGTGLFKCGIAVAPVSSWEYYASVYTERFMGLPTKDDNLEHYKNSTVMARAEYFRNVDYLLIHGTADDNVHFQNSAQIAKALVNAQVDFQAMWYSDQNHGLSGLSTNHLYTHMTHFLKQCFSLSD
Procedure: 384 low volume black plates (Greiner #784076) were used. 4 μL, 0.48 nM enzyme solution (100 mM Tris HCl, 100 mM NaCl, 0.05% Chaps, pH 7.4) was added to 40 nL compounds (in DMSO) at 10 CR, 3 fold dilution series from 50 μM FAC. Plates were incubated for 15 min at rt in dark. 4 μL, 40 μM substrate solution (100 mM Tris HCl, 100 mM NaCl, 0.05% Chaps, pH 7.4) was added to each well. Plates were centrifuged at 1000 rpm and incubated for 30 min at rt in dark. The plates were read on a PHERAstar® reader with excitation 340 nm and emission 460 nm. Data were analyzed in Genedata Screener®. IC50 values were determined by plotting % inhibition versus log compound concentration and using a one site dose response model.

[1] = target: T2, Prolyl endopeptidase, Prolyl Oligopeptidase (hPREP) (Homo sapiens, UniProt P48147)
T2 sequence (P48147 1-710): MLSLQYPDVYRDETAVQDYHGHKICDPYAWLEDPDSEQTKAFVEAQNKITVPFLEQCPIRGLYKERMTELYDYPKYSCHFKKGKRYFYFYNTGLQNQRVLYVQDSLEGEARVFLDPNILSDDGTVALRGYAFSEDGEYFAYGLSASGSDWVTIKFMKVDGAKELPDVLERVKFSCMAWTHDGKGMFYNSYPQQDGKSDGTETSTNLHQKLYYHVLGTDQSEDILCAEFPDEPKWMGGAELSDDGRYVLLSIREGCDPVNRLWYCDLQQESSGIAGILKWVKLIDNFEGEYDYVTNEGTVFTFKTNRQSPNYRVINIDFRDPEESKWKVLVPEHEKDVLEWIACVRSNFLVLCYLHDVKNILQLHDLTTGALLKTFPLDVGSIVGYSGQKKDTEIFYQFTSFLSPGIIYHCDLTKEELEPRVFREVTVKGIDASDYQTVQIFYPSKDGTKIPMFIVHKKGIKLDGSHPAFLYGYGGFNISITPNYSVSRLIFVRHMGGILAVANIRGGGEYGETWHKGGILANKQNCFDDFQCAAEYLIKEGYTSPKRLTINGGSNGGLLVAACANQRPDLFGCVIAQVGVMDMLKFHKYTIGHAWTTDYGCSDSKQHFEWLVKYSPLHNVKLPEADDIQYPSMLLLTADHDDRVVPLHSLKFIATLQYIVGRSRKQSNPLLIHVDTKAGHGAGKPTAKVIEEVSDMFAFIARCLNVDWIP
Procedure: Compounds were tested in a biochemical inhibition assay using Prolyl endopeptidase, Prolyl Oligopeptidase (hPREP) enzyme at 0.6 nM FAC (R&D Systems, 4308-SE) and the substrate Z-Gly-Pro-amino-methylcoumarin (Bachem, I-1145) at 50 μM FAC. 384 Low volume black plates (Greiner #784076) were used. […] Plates were incubated for 15 min at rt in dark. 4 μL, 100 μM substrate solution (25 mM Tris HCl, 250 mM NaCl, 0.01% Triton X-100, 5 mM Glutathione, pH 7.5) was added to each well. Plates were centrifuged at 1000 rpm and incubated for 20 min at rt in dark. The plates were read on a PHERAstar® reader with excitation 340 nm and emission 460 nm. Data were analyzed in Genedata Screener®. IC50 values were determined by plotting % inhibition versus log compound concentration and using a one site dose response model.

hFAP (M39-A757) = target: T3, hFAP (M39-A757) (Homo sapiens, UniProt Q12884);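 also: surface plasmon resonance direct binding to hFAP amine-coupled on a sensor chip, rising compound concentrations by single cycle kinetics, Kd from global fit of interaction models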
T3 sequence (Q12884 39-757): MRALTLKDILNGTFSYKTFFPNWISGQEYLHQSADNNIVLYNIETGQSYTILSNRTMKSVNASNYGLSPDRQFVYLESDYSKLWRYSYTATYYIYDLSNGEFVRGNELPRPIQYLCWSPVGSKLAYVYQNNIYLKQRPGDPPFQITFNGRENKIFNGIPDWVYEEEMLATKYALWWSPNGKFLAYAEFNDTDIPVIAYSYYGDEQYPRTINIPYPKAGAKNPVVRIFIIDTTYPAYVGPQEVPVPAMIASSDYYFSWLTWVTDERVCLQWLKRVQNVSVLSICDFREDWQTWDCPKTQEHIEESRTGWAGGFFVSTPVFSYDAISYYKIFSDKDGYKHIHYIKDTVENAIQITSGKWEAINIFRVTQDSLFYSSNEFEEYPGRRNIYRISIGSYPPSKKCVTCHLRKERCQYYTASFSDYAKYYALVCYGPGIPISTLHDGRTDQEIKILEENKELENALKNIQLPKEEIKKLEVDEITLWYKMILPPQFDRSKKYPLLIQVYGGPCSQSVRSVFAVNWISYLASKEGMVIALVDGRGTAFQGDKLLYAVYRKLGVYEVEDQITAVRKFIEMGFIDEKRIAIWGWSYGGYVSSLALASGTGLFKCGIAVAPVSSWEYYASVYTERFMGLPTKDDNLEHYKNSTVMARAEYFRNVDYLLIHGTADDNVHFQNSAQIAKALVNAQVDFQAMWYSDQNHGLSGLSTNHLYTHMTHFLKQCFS

COC(C)(C)c1ccc2nccc(C(=O)NCC(=O)N3CSC[C@H]3C#N)c2c1 [Example 18, (R)—N-(2-(4-Cyanothiazolidin-3-yl)-2-oxoethyl)-6-(2-methoxypropan-2-yl)quinoline-4-carboxamide]
IC50 (hFAP): 0.81 nM
IC50 [1]: 860 nM
Kd (hFAP (M39-A757)): 0.43 nM

CC(C)(O)c1ccc2nccc(C(=O)NCC(=O)N3CSC[C@H]3C#N)c2c1 [Example 16, (R)—N-(2-(4-Cyanothiazolidin-3-yl)-2-oxoethyl)-6-(2-hydroxypropan-2-yl)quinoline-4-carboxamide]
IC50 (hFAP): 0.6 nM
IC50 [1]: 640 nM
Kd (hFAP (M39-A757)): 0.23 nM

N#C[C@@H]1CSCN1C(=O)CNC(=O)c1ccnc2ccc(C3(C#N)CC3)cc12 [Example 70, (R)-6-(1-Cyanocyclopropyl)-N-(2-(4-cyanothiazolidin-3-yl)-2-oxoethyl)quinoline-4-carboxamide]
IC50 (hFAP): 0.43 nM
IC50 [1]: 120 nM
Kd (hFAP (M39-A757)): 0.62 nM

CCOC1(c2ccc3nccc(C(=O)NCC(=O)N4CSC[C@H]4C#N)c3c2)CCOCC1 [Example 23, (R)—N-(2-(4-Cyanothiazolidin-3-yl)-2-oxoethyl)-6-(4-ethoxytetrahydro-2H-pyran-4-yl)quinoline-4-carboxamide]
IC50 (hFAP): 0.71 nM
IC50 [1]: 1100 nM
Kd (hFAP (M39-A757)): 0.059 nM

N#C[C@@H]1CSCN1C(=O)CNC(=O)c1ccnc2ccc(C3CCCCO3)cc12 (mixture of isomers) [Example 32, N-(2-((R)-4-Cyanothiazolidin-3-yl)-2-oxoethyl)-6-((RS)-tetrahydro-2H-pyran-2-yl)quinoline-4-carboxamide]
IC50 (hFAP): 0.63 nM
IC50 [1]: 910 nM
Kd (hFAP (M39-A757)): 0.35 nM

N#C[C@@H]1CSCN1C(=O)CNC(=O)c1ccnc2ccc(C3CCOCC3)cc12 [Example 20, (R)—N-(2-(4-Cyanothiazolidin-3-yl)-2-oxoethyl)-6-(tetrahydro-2H-pyran-4-yl)quinoline-4-carboxamide]
IC50 (hFAP): 0.23 nM
IC50 [1]: 1000 nM
Kd (hFAP (M39-A757)): 0.056 nM

CC(C)(F)COc1ccc2nccc(C(=O)NCC(=O)N3CSC[C@H]3C#N)c2c1 [Example 3, (R)—N-(2-(4-Cyanothiazolidin-3-yl)-2-oxoethyl)-6-(2-fluoro-2-methylpropoxy)quinoline-4-carboxamide]
IC50 [1]: 950 nM
Kd (hFAP (M39-A757)): 0.062 nM

N#C[C@@H]1CSCN1C(=O)CNC(=O)c1ccnc2ccc(C3(O)CCOCC3)cc12 [Example 15, (R)—N-(2-(4-Cyanothiazolidin-3-yl)-2-oxoethyl)-6-(4-hydroxy-tetrahydro-2H-pyran-4-yl)quinoline-4-carboxamide]
IC50 (hFAP): 0.45 nM
IC50 [1]: 1100 nM
Kd (hFAP (M39-A757)): 0.068 nM

CO[C@H]1CC[C@H](c2ccc3nccc(C(=O)NCC(=O)N4CSC[C@H]4C#N)c3c2)CC1 (single isomer, unassigned) [Example 78, N-(2-((R)-4-Cyanothiazolidin-3-yl)-2-oxoethyl)-6-((1r,4R*)-4-methoxycyclohexyl)quinoline-4-carboxamide]
IC50 [1]: 1000 nM
Kd (hFAP (M39-A757)): 0.022 nM
